Experimental data from patent US5525627A, “Esters of acyl carnitines with long-chain aliphatic alcohols and pharmaceutical compositions containing same having antimycotic activity” (Sigma-Tau Industrie Farmaceutiche Riunite S.p.A., priority 1992, dated 1996).
Several values for one entry are separate records, joined by “and”; a condition that tells them apart may be missing. Identical values can stand only once.

Tests used:
[1] = tested on: C. albicans ISS 1; assay: Experimental subcutaneous infection with Candida albicans in mice; assay type: in vivo, Candida albicans in mice (male CD1 outbred)
Procedure: Male CD1 outbred mice (IFFA Credo) aged 8 weeks were used (4 animals per group).
A pathogenic strain of Candida was used, namely C. albicans ISS 1.
The infected animals were treated with ST 722 dissolved in saline, and Miconazole diluted in saline from a stock solution containing 1% Dimethyl Formamide.
From an overnight broth culture of C. albicans in Sabouraud broth, a fungal suspension was prepared in sterile saline containing 5.0×10^5 cells/mi. An inoculum of 0.5 ml of this suspension was injected subcutaneously into the abdominal wall of each animal.
The compounds were then administered by subcutaneous injection in the same area of the fungal challenge at the dose of 50 mcg (in 0.2 ml of saline) immediately after the inoculum and following 48 and 96 hours (150 total mcg per animal).
Then, 48 hours following the last treatment (6 days after the challenge with Candida), the animals were sacrificed, and the abdominal wall as well as the peritoneum were dissected out.
The excised tissues were then homogenized in 5 ml of sterile saline with a Potter-Elvehjem tissue grinder. The resulting suspensions, appropriately diluted, where plated onto Petri dishes containing a selective agar medium (BIGGY agar), which allows to easily detect the yeast Colony Forming Units (CFU/ml).
The number of colonies scored in a series of dilutions for each single sample consents to calculate the number of yeast cells present in the infected tissue sample as follows: [formula] Where Zi is the number of dilutions performed, Ni is the number of plates prepared for each dilution, and Ci is the total number of yeast cells scored in each dilution.

[2] = tested on: mice; assay: Assessment of behaviour and mortality in mice (Irwin's method); set-up: species or system mice (male Crl:(CD-1)(ICR)BR); conditions: mouse, in vivo, po
Procedure: (§1) ASSESSMENT OF BEHAVIOUR AND MORTALITY IN MICE
(§2) The assessment of normal behaviour in mice was carried out following S. Irwin's method (Psychopharmacologia, 13, 222 [1968]). This method allows alterations in some behavioural, neurophysiologic and neurovegetative parameters to be detected, which are directly observable by the researcher. The study was conducted using male Crl:(CD-1)(ICR)BR mice (Charles River-Italy) weighing 22-25 g. following oral administration of the compounds suspended in carboxymethylcellulose (0.5% by weight in H2 O) to groups of 4 animals/dose.
(§3) The animals were continously kept under observation for five hours following treatment and twice a day in the subsequent five days. Mortality was also observed during the overall test period.

[3] = as above; set-up: species or system mice (male Crl:(CD-1)(ICR)BR); conditions: mouse, in vivo; oral, dose 1000 (unit inferred), 4 animals/dose
Procedure: as §1, §2, §3

[4] = Test 2: weight of murine lymphoid organs after repeated oral administrations; assay type: in vivo, mice (male B6 D2 F1); conditions: 100 mg/kg/day oral, 7 consecutive days; x ± S.E.
Procedure: Test 2: Evaluation of the effect of repeated oral administrations of ST 722 on the weight of murine lymphoid organs (spleen and thymus).
Male B6 D2 F1 mice (C. River) aged 7 weeks (7-8 animals each group) were orally treated with the substance ST 722 at the dose of 100 mg/kg/day for 7 consecutive days. Twenty-four hours after the last administration, the animals were sacrificed, the organs removed and weighed.

[5] = tested on: filamentous fungi; assay: MIC / MFC for filamentous fungi, all strains; assay type: cell-based, Aspergillus, Fusarium, Mucor, Penicillium; conditions: versus susceptible strains; read-out: Mean MIC values
How it was run: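 MIC and MFC values were evaluated as previously reported, with testing done as for yeast-like fungi. The inoculum was 5.0×10^4 CFU/ml of conidia washed from 72-hour Sabouraud agar with Sabouraud medium plus Tween 80.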

[6] = Test 1: body and lymphoid organ weight in SRBC immunized mice; assay type: in vivo, mice (male B6 D2F1); conditions: 100 mg/kg/day per os, day -2 through day +2; x ± S.E.
Procedure: Test 1: Evaluation of the "in vitro-ex vivo" effect of repeated oral administrations of ST 722 on the primary antibody production (Jerne test) in the spleen of SRBC (Sheep Red Blood Cells) immunized mice.
Male B6 D2F1 mice (C. River) aged 8 weeks (6 animals each group) were utilized.
The substance (ST 722) was administered per os at the dose of 100 mg/kg/day from day -2 through day +2 (immunization at day 0). The animals were immunized by intraperitoneal route with a concentration of 1.0×10^8 cells/mouse in 0.2 ml of sterile saline.
Five days later, spleens to be submitted to teasing process were removed from the animals sacrificed by cervical dislocation. After standardization at 1.0×10^7 cells/ml. the splenocytes (0.1 ml) were mixed with warm agar-Hank's (2 ml) and 10% SRBC in PBS (0.2 ml) and seeded in Petri dishes (samples tested in triplicates) and incubated at 37° C. for 60 min.

[7] = tested on: Candida albicans (PG); assay: MIC and MFC for yeast and yeast-like strains; assay type: cell-based
How it was run: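 Candida, Cryptococcus, Saccharomyces and Torulopsis strains tested by broth microdilution in Yeast Nitrogen Base with 0.15% asparagine and 1.0% glucose, buffered with 0.165 M MOPS; final inoculum about 5.0×10^4 CFU/ml from overnight (Cryptococcus 48-hour) Sabouraud cultures. MFC from spot-transfer of wells without visible growth onto Sabouraud agar.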

For CCCCCCCCCCCOC(=O)C[C@H](C[N+](C)(C)C)OC(=O)CC(C)C [ST 722, isovaleryl-L-carnitine undecyl ester chloride], the CFU/mouse ([1]; individual samples 1-4, 50 mcg s.c. at 0, 48 and 96 hours (150 total mcg per animal)) was “sterile and 1.36 × 10^2 CFU/mouse”, the “effect on the infection with Candida” value ([1]; s.c., 150 total mcg per animal) was “substantially inhibits the infection with Candida” and the “sterile samples out of 4” value ([1]; s.c., 150 total mcg per animal) was 3 samples. For the same compound, the Symptoms [2] was “salivation, diarrhoea”, the mortality at 120 h [3] was 0% and the Body weight [4] was 22.74 ± 0.37 g. For the same compound, the Spleen weight [4] was 77.88 ± 2.38 mg, the Thymus weight [4] was 52.88 ± 3.20 mg and the MIC [5] was 16.4 µg/mL. It also gave a Body weight [6] of 25.12 ± 0.77 g, a Spleen weight [6] of 94.33 ± 4.12 mg and a Thymus weight [6] of 59.50 ± 3.62 mg. For the same compound, the MFC ([7]; 48 h, C. albicans PG) was 3.12 µg/mL and the MIC ([7]; 48 hours, 35° C., read-out: Minimal Inhibitory Concentration (MIC)) was 3.12 µg/mL.
